Source: patent US11161817B2, “Quinoline derivative and use thereof as tyrosine kinase inhibitor” (CHONGQING PHARMACEUTICAL INDUSTRIAL RESEARCH INSTITUTE CO. …, priority 2017, dated 2021)
Like-named read-outs stand apart in the source and are kept apart here.

Tests used:
Aurora-A(h) = target: T1, Aurora-A(h) (Homo sapiens, UniProt O14965); test: In vitro kinase activity test, Aurora-A(h)
T1 sequence (O14965 1-403): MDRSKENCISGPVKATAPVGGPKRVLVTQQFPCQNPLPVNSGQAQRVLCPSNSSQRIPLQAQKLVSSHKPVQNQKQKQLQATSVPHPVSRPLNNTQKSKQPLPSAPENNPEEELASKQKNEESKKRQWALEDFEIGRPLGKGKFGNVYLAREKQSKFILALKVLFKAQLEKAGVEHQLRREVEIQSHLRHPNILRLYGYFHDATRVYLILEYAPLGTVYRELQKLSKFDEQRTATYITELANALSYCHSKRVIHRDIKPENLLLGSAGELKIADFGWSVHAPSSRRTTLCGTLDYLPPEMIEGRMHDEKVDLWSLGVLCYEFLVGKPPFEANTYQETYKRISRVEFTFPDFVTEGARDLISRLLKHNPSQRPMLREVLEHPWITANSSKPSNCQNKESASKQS
Procedure: (§2) Protein kinase with a corresponding enzyme concentration of X (shown in table 1), peptide substrate with a concentration of Y, ATP with a specific concentration, 8 mM MOPS (pH 7.0), and 10 mM MgCl2 were added. The detection plate was P30 filtermat, and the reaction was performed at room temperature for T minutes, and the reaction system was 10 μL.
(§3) The reaction was terminated by adding 0.5% phosphoric acid to the kinase reaction solution, and the plate was read by an Envision instrument.
(§4) The data were converted into phosphorylation rate and inhibition rate, and subjected to parameter curve-fitting (GraphPad Software) to obtain IC50 data of the compounds.

Flt4(h) = Flt4(h) (Homo sapiens, UniProt P35916); test: In vitro kinase activity test, Flt4(h)
Procedure: as §2, §3, §4

FGFR1(h) = FGFR1(h) (Homo sapiens, UniProt P11362); test: In vitro kinase activity test, FGFR1(h)
Procedure: as §2, §3, §4

Lck(h) = Lck(h) (Homo sapiens, UniProt P06239); test: In vitro kinase activity test, Lck(h)
Procedure: as §2, §3, §4

Abl(h) = Abl(h) (Homo sapiens, UniProt P00519); test: In vitro kinase activity test, Abl(h)
Procedure: as §2, §3, §4

c-Met = c-Met (Homo sapiens, UniProt P08581); test: In vitro kinase activity test, c-Met
Procedure: as §2, §3, §4

FGFR2(h) = FGFR2(h) (Homo sapiens, UniProt P21802); test: In vitro kinase activity test, FGFR2(h)
Procedure: as §2, §3, §4

Flt1(h) = Flt1(h) (Homo sapiens, UniProt P17948); test: In vitro kinase activity test, Flt1(h)
Procedure: as §2, §3, §4

KDR(h) = KDR(h) (Homo sapiens, UniProt P35968); test: In vitro kinase activity test, KDR(h)
Procedure: as §2, §3, §4

FGFR3(h) = FGFR3(h) (Homo sapiens, UniProt P22607); test: In vitro kinase activity test, FGFR3(h)
Procedure: as §2, §3, §4

MINK(h) = MINK(h) (Homo sapiens, UniProt Q8N4C8); test: In vitro kinase activity test, MINK(h)
Procedure: as §2, §3, §4

cKit(h) = cKit(h) (Homo sapiens, UniProt P10721); test: In vitro kinase activity test, cKit(h)
Procedure: as §2, §3, §4

cKit(V560G)(h) = cKit(V560G)(h) (Homo sapiens, UniProt P10721, V560G); test: In vitro kinase activity test, cKit(V560G)(h)
Procedure: as §2, §3, §4

PDGFRα(h) = PDGFRα(h) (Homo sapiens, UniProt P16234); test: In vitro kinase activity test, PDGFRα(h)
Procedure: as §2, §3, §4

TNIK(h) = TNIK(h) (Homo sapiens, UniProt Q9UKE5); test: In vitro kinase activity test, TNIK(h)
Procedure: as §2, §3, §4

FGFR4(h) = FGFR4(h) (Homo sapiens, UniProt P22455); test: In vitro kinase activity test, FGFR4(h)
Procedure: as §2, §3, §4

PDGFRβ(h) = PDGFRβ(h) (Homo sapiens, UniProt P09619); test: In vitro kinase activity test, PDGFRβ(h)
Procedure: as §2, §3, §4

[1] = Pharmacokinetic evaluation in mice, intravenous and oral administration; type: in vivo; details: male Balb/c nude mice, single
Procedure: Experimental objective: evaluation of the oral absorption in animals of the product of Embodiment 1 by intravenous and oral administration in mice
Experimental materials: Balb/c nude mice, EDTA-K2
(§1) Experimental procedure: 0.5 mg/mL 5% DMSO/95% (10% HP-β-CD) clear solution of the product of Embodiment 1 was injected intravenously into male Balb/c nude mice (overnight fasting, 7-9 week-age) via caudal vein at a dose of 1 mg/kg. 0.5 mg/mL test compound suspended in 0.5% Methocel/0.2% Tween 80 was administered intragastrically to male Balb/c nude mice (overnight fasting, 7-9 week-age) at a dose of 5 mg/kg. About 30 μL blood was collected from the jugular or caudal vein of each animal in the two groups at 0.25, 0.5, 1.0, 2.0, 4.0, 8.0 and 24 hours after administration, added into anticoagulated tubes containing EDTA-K2, and the mixture was centrifuged to obtain the plasma. LC-MS/MS method was used to determine the drug concentration in blood, and WinNonlin™ Version 6.3 (Pharsight, Mountain View, Calif.) pharmacokinetic software was used to calculate the relevant pharmacokinetic parameters by non-compartment model logarithmic trapezoidal method.

[2] = Pharmacokinetic evaluation in rats, intravenous and oral administration; type: in vivo, SD rats; details: for Vd / AUC(0-t) / half-life / clearance: rat, plasma, male SD rats, intravenous injection, 1.0 mg/kg, single; for Vd: read-out: apparent volume of distribution at steady state (Vdss); for AUC(0-t): read-out: area under the plasma concentration-time curve (AUC0-last); for half-life: read-out: elimination half-life (T1/2) (converted); for clearance: read-out: plasma clearance (CL)
[3] = as above; type: in vivo, SD rats; details: for time to peak concentration / AUC(0-t) / bioavailability / Cmax: male SD rats, intragastric, 5 mg/kg, single; for AUC(0-t) / bioavailability / Cmax: rat, plasma, po; for Cmax: read-out: peak concentration (Cmax)
Procedure: Experimental objective: evaluation of the oral absorption in animals of the product of Embodiment 1 by intravenous and oral administration in rats
Experimental materials: male, SD rats, EDTA-K2
as §1, with “0.5” for “Experimental procedure: 0.5”, “mg/mL” for “mg/mL 5% DMSO/95% (10% HP-β-CD) clear solution”, “the” for “the product of Embodiment 1 was injected intravenously into male Balb/c nude mice (overnight fasting, 7-9 week-age) via caudal vein at a dose of 1 mg/kg. 0.5 mg/mL”, “SD rats” for “Balb/c nude mice”, “7-11” for “7-9”, “8.0,” for “8.0”

[4] = c-Met kinase activity IC50, Table 3, value 45.6 is from the second test (Note 1)
[5] = rats, intravenous administration

Lck(h), sequence (P06239 whole entry): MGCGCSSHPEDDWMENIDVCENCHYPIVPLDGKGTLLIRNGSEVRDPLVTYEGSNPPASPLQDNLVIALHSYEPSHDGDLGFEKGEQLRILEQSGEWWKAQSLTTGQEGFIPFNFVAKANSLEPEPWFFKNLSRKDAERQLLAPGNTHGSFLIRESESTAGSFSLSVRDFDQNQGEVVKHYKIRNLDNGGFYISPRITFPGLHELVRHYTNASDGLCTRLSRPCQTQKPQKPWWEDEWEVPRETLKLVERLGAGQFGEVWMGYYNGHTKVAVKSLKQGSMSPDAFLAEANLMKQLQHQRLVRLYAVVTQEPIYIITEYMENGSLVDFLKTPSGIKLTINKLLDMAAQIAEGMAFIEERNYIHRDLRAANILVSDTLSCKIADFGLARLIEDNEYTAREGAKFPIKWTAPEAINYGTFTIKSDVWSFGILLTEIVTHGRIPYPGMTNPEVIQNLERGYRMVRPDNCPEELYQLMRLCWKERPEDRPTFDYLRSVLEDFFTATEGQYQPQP
PDGFRβ(h), sequence (P09619 33-1106): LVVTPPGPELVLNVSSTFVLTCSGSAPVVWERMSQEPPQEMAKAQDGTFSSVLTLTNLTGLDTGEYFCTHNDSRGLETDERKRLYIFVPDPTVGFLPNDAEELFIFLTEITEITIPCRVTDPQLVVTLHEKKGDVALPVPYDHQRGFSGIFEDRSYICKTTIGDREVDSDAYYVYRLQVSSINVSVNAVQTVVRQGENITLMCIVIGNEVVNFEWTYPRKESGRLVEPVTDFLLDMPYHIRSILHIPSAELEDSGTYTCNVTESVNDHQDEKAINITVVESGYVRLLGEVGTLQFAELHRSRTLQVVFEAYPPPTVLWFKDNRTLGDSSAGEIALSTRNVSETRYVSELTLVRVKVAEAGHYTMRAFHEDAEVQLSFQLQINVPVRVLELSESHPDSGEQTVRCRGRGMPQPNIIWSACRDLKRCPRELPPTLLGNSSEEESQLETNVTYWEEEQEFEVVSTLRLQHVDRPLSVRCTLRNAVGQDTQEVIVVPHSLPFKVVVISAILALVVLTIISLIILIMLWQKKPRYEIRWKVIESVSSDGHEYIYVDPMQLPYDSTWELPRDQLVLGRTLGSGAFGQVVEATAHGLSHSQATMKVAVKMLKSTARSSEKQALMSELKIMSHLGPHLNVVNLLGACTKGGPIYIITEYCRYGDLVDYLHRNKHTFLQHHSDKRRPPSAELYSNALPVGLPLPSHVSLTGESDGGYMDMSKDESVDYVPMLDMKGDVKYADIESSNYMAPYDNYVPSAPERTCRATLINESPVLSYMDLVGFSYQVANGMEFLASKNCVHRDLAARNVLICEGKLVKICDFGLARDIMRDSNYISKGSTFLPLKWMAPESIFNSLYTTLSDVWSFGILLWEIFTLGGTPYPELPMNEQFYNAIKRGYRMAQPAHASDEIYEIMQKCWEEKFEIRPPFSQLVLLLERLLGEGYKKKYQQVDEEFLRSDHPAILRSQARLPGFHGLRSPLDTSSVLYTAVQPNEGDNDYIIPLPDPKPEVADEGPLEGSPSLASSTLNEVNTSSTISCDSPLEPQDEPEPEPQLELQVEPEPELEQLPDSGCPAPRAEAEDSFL
FGFR1(h), sequence (P11362 22-822): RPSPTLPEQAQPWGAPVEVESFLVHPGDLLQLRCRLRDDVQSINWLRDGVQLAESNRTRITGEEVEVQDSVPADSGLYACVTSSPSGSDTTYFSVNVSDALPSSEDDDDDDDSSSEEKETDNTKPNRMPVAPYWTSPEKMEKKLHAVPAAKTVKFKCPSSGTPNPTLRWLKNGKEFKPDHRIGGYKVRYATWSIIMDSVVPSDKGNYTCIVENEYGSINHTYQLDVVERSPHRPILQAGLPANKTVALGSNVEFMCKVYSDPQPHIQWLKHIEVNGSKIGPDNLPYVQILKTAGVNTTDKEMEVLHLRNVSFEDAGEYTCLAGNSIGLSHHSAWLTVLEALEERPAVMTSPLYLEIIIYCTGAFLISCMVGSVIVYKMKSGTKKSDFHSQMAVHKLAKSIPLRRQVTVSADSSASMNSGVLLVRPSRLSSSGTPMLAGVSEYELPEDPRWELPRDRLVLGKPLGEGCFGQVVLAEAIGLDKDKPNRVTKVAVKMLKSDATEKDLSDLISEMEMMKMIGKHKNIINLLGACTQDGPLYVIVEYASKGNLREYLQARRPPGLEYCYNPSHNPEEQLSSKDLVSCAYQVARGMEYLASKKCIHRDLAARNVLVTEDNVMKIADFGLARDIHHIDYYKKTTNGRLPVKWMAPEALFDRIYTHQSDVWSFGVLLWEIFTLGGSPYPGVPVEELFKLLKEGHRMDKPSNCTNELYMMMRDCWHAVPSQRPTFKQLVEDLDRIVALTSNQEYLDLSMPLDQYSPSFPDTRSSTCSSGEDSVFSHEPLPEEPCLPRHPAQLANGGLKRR
TNIK(h), sequence (Q9UKE5 whole entry): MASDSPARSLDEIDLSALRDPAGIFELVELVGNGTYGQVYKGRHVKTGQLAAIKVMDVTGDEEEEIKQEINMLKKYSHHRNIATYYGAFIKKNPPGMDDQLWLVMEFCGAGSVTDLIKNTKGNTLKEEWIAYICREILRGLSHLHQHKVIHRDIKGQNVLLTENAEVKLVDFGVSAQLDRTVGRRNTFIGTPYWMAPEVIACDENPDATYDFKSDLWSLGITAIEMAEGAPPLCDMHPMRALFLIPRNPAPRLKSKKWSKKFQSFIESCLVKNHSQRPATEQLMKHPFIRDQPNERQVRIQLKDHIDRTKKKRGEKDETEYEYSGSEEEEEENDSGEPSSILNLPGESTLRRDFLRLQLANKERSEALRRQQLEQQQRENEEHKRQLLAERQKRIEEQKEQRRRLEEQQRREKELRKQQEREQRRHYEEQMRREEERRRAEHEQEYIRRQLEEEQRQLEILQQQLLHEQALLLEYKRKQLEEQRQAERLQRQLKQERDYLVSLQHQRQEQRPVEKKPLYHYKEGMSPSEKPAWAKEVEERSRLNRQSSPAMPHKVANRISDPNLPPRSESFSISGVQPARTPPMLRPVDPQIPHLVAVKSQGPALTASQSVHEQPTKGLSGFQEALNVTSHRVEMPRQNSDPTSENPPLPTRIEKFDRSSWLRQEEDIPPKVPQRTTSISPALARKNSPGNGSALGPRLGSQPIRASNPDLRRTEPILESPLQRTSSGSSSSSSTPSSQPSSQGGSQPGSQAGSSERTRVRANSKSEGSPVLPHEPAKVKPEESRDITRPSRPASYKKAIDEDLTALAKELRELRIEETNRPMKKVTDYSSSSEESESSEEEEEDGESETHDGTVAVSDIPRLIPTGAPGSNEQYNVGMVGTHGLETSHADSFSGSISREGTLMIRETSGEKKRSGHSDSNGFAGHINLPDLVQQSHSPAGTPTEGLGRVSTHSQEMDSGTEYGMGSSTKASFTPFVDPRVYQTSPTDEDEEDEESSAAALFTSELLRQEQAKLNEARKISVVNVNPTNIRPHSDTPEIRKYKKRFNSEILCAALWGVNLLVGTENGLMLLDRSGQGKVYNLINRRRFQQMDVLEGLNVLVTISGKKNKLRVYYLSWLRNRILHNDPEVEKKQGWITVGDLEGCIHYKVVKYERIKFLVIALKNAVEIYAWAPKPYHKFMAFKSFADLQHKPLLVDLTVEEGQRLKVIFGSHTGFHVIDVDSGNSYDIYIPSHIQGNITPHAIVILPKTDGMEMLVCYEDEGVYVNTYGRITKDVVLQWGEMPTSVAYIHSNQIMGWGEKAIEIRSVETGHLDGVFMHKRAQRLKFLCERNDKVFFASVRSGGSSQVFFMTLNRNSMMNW
Flt1(h), sequence (P17948 27-1338): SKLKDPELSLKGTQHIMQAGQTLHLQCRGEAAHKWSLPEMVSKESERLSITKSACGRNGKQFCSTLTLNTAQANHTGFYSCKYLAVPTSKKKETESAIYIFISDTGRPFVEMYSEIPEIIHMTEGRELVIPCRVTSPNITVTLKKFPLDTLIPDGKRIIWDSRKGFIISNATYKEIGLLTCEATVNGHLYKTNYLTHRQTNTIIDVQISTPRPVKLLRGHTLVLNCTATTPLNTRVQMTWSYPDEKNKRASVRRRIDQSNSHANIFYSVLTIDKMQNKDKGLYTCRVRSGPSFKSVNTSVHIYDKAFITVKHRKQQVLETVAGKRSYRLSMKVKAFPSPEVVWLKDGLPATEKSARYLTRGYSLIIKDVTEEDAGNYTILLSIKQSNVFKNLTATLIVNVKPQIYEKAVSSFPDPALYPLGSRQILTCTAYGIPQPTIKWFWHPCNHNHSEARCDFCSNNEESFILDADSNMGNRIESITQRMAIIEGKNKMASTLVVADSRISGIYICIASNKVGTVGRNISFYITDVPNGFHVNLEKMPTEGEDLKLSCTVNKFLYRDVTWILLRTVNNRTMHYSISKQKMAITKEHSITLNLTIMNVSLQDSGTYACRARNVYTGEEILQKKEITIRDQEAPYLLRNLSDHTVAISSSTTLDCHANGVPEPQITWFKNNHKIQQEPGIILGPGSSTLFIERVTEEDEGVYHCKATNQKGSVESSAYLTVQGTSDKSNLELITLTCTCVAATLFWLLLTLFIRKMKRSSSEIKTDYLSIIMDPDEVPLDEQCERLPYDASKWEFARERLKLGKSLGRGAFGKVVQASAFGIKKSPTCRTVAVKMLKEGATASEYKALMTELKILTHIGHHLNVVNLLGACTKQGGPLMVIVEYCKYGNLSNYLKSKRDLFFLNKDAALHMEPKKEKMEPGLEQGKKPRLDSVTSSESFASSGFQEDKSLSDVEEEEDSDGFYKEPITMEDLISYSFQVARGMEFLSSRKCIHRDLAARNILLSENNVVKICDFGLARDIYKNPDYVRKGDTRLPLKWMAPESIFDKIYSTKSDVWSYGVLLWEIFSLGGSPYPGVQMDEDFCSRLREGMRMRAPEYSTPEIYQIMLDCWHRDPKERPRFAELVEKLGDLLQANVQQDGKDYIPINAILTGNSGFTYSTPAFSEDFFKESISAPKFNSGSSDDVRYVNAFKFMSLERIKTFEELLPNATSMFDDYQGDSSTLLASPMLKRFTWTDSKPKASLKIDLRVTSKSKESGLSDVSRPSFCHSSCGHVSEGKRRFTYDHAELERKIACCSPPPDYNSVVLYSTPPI

COc1cc2nccc(Oc3ccc(NC(=O)NC4CC4)c(Cl)c3F)c2cc1C(N)=O [Embodiment 1B]
IC50 (Aurora-A(h)): 2080 nM
IC50 (Flt4(h)): 3 nM
IC50 (FGFR1(h)): 9 nM
activity on FGFR1 increased, compared with Comparative Compound 1 (FGFR1(h); from Table 2): 8 times
IC50 (Lck(h)): 43 nM
IC50 (Abl(h)): 7 nM
activity on ABL improved, compared with Comparative Compound 2 (Abl(h); from Table 2): ~70 times
activity on ABL increased, compared with Comparative Compound 1 (Abl(h); from Table 2): 5 times
IC50 (c-Met; c-Met IC50, Table 2, ATP 10 μM): 99.8 nM
IC50 (c-Met; [4]): 45.6 nM
activity on c-Met increased, compared with Comparative Compound 1 (c-Met; from Table 2): 5 times
IC50 (FGFR2(h)): 6 nM
activity on FGFR2 increased, compared with Comparative Compound 1 (FGFR2(h); from Table 2): 2 times
IC50 (Flt1(h)): 10 nM
IC50 (KDR(h)): 9 nM
IC50 (FGFR3(h)): 26 nM
activity on FGFR3 increased, compared with Comparative Compound 1 (FGFR3(h); from Table 2): 5 times
IC50 (MINK(h)): 48 nM
IC50 (cKit(h)): 68 nM
IC50 (cKit(V560G)(h)): 262 nM
IC50 (PDGFRα(h)): 120 nM
IC50 (TNIK(h)): 14 nM
activity on TNIK improved, compared with Comparative Compound 2 (TNIK(h); from Table 2): 8 times
activity on TNIK increased, compared with Comparative Compound 1 (TNIK(h); from Table 2): 6.5 times
IC50 (FGFR4(h)): 92 nM
activity on FGFR4 increased, compared with Comparative Compound 1 (FGFR4(h); from Table 2): 12 times
IC50 (PDGFRβ(h)): 226 nM

COc1cc2nccc(Oc3ccc(NC(=O)NC4CC4)c(F)c3)c2cc1C(N)=O [Comparative Compound 6]
IC50 (FGFR1(h)): 1740 nM
IC50 (Abl(h)): 2210 nM
IC50 (c-Met; [4]): 282 nM
IC50 (FGFR4(h)): 4560 nM

COc1cc2nccc(Oc3ccc(NC(=S)NC4CC4)c(Cl)c3F)c2cc1C(N)=O [Comparative Compound 2]
IC50 (Aurora-A(h); read-out: Aurora-A(h) IC50, Table 2, ATP 10 μM): 262 nM
IC50 (Flt4(h)): 8 nM
IC50 (FGFR1(h); read-out: FGFR1(h) IC50, Table 2, ATP 5 μM): 69 nM
IC50 (Lck(h); read-out: Lck(h) IC50, Table 2, ATP 10 μM): 252 nM
IC50 (FGFR2(h)): 15 nM
IC50 (Flt1(h); read-out: Flt1(h) IC50, Table 2, ATP 10 μM): 31 nM
IC50 (KDR(h); read-out: KDR(h) IC50, Table 2, ATP 10 μM): 7 nM
IC50 (MINK(h); read-out: MINK(h) IC50, Table 2, ATP 10 μM): 55 nM
IC50 (TNIK(h); read-out: TNIK(h) IC50, Table 2, ATP 10 μM): 118 nM
IC50 (PDGFRβ(h); read-out: PDGFRβ(h) IC50, Table 2, ATP 10 μM): 31 nM

COc1cc2nccc(Oc3cc(F)c(NC(=O)NC4CC4)cc3F)c2cc1C(N)=O [Comparative Compound 3]
IC50 (FGFR1(h)): 160 nM
IC50 (Abl(h)): 817 nM
IC50 (c-Met; [4]): > 10000 nM
IC50 (FGFR4(h)): 509 nM

COc1cc2nccc(Oc3cc(F)c(NC(=O)NC4CC4)c(Cl)c3)c2cc1C(N)=O [Comparative Compound 7]
IC50 (FGFR1(h)): 54 nM
IC50 (c-Met; [4]): > 10000 nM
IC50 (FGFR4(h)): 1110 nM

COc1cc2nccc(Oc3ccc(NC(=O)NC4CC4)c(F)c3F)c2cc1C(N)=O [Comparative Compound 4]
IC50 (FGFR1(h)): 31 nM
IC50 (Abl(h)): 292 nM
IC50 (c-Met; [4]): 79.8 nM
IC50 (FGFR4(h)): 108 nM

COc1cc2nccc(Oc3ccc(NC(=O)NC4CC4)c(Cl)c3F)c2cc1C(N)=O [Embodiment 1]
time to peak concentration ([1]; intragastric, 5 mg/kg): 0.5 h
bioavailability ([1]; mouse, plasma, po, intragastric, 5 mg/kg): 144%
AUC(0-t) ([1]; mouse, plasma, po, intragastric, 5 mg/kg, read-out: AUC0-last): 24.9 µM·h
Cmax ([1]; mouse, plasma, po, intragastric, 5 mg/kg, read-out: peak concentration (Cmax)): 9.83 µM
Vd ([1]; mouse, plasma, intravenous injection, 1.0 mg/kg, read-out: apparent volume of distribution at steady state (Vdss)): 1.48 L/kg
AUC(0-t) ([1]; mouse, plasma, intravenous injection, 1.0 mg/kg, read-out: area under the plasma concentration-time curve (AUC0-last)): 3.21 µM·h
half-life ([1]; mouse, plasma, intravenous injection, 1.0 mg/kg, read-out: elimination half-life (T1/2) (converted)): 2.68 h
clearance ([1]; mouse, plasma, intravenous injection, 1.0 mg/kg, read-out: plasma clearance (CL)): 11 mL/min/kg
Vd [2]: 0.259 L/kg
AUC(0-t) [2]: 23.4 µM·h
half-life [2]: 2.64 h
clearance [2]: 1.6 mL/min/kg
AUC0-last increased, compared with Comparative Compound 1 [2, 5]: 55%
plasma clearance reduced, compared with Comparative Compound 1 [2, 5]: ~38%
time to peak concentration [3]: 0.375 h
AUC(0-t) [3]: 71.1 µM·h
bioavailability [3]: 60.8%
Cmax [3]: 19.6 µM
AUC0-last increased, compared with Comparative Compound 1 ([3]; rats, oral absorption): 27%

COc1cc2nccc(Oc3cc(Cl)c(NC(=O)NC4CC4)cc3F)c2cc1C(N)=O [Comparative Compound 5]
IC50 (FGFR1(h)): 89 nM
IC50 (Abl(h)): 207 nM
IC50 (c-Met; [4]): 32 nM
IC50 (FGFR4(h)): 137 nM

COc1cc2nccc(Oc3ccc(NC(=O)NC4CC4)c(Cl)c3)c2cc1C(N)=O [Comparative Compound 1, Lovatinib]
IC50 (Flt4(h)): 3 nM
IC50 (FGFR1(h)): 76.6 nM
IC50 (Lck(h)): 69 nM
IC50 (c-Met; c-Met IC50, Table 2, ATP 10 μM): 598 nM
IC50 (FGFR2(h)): 14 nM
IC50 (Flt1(h)): 13 nM
IC50 (FGFR3(h)): 132 nM
IC50 (MINK(h)): 359 nM
IC50 (cKit(h)): 78 nM
IC50 (cKit(V560G)(h)): 596 nM
Vd [2]: 0.407 L/kg
AUC(0-t) [2]: 15.1 µM·h
half-life [2]: 2.53 h
clearance [2]: 2.6 mL/min/kg
IC50 (TNIK(h)): 91 nM
time to peak concentration [3]: 1.25 h
AUC(0-t) [3]: 44.5 µM·h
bioavailability [3]: 58.7%
Cmax [3]: 10.1 µM
IC50 (FGFR4(h)): 1120 nM
IC50 (PDGFRβ(h)): 275 nM
